# Results published in ChEMBL document CHEMBL1126522, “Indolocarbazoles. 1. Total synthesis and protein kinase inhibiting characteristics of compounds related to K-252c” (Bioorg Med Chem Lett, 1993).
# pIC50, pKi: −log10 of the molar value.
# Target: Receptor tyrosine-protein kinase erbB-2 (Homo sapiens, UniProt P04626)
# Experiment: Inhibition of neu (erb-B2) HER2 kinase
# Sequence of Receptor tyrosine-protein kinase erbB-2 (P04626 whole entry): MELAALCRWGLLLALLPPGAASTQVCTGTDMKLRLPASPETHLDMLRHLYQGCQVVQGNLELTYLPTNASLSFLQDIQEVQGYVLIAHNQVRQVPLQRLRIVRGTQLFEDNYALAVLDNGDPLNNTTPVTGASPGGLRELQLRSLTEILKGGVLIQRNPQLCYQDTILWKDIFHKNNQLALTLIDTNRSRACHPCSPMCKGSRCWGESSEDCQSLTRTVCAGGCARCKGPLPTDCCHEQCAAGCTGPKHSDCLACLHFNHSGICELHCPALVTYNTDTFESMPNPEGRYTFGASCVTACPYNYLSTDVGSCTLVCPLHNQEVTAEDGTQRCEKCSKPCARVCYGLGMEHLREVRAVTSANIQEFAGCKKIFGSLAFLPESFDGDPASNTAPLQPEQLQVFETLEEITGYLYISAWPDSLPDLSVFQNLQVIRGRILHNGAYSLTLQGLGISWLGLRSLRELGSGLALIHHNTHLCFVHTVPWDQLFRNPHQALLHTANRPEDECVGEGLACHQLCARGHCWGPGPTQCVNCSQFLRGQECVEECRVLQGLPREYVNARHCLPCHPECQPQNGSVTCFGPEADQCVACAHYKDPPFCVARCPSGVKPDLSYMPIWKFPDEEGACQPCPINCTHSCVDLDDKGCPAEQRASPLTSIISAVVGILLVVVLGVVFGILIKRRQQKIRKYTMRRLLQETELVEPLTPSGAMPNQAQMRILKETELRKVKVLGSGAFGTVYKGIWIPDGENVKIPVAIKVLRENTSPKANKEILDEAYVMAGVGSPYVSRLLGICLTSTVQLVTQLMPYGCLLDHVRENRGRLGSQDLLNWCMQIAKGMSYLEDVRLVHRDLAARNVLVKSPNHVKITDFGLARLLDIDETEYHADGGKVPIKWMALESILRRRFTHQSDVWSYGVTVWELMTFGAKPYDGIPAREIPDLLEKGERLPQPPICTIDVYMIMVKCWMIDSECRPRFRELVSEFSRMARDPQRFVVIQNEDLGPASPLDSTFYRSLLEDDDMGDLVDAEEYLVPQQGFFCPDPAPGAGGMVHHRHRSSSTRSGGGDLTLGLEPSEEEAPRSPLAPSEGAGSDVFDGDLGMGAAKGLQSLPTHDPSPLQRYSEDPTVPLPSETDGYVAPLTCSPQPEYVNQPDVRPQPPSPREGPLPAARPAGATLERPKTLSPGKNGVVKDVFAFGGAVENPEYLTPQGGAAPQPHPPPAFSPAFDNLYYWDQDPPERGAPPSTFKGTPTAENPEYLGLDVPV
row,Compound,pIC50
1,O=C1NC(=O)c2c1c1c3ccccc3n3c1c1c2c2ccccc2n1[C@@H]1O[C@H]3C[C@@H]1CO,6.60

# Target: Protein kinase C (PKC) (Rattus norvegicus) (UniProt P05696+P68403+P09216+P63319+P09215+Q64617+Q9WTQ0+P09217)
# Experiment: Inhibition of partially purified rat brain protein kinase C
row,Compound,Inhibition [nM]
1,CN(C)C[C@@H]1C[C@@H]2O[C@H]1n1c3ccccc3c3c4c(c5c6ccccc6n2c5c31)C(=O)NC4=O,4
2,O=C1NC(=O)c2c1c1c3ccccc3n3c1c1c2c2ccccc2n1[C@@H]1O[C@H]3C[C@@]1(O)C(=O)O,6
3,CNC(=O)[C@@H]1C[C@@H]2O[C@H]1n1c3ccccc3c3c4c(c5c6ccccc6n2c5c31)C(=O)NC4=O,0.5
4,O=C1NC(O)c2c1c1c3ccccc3n3c1c1c2c2ccccc2n1[C@H]1CC[C@@H]3O1 (stereo partly drawn),50
5,NN1C(=O)c2c(c3c4ccccc4n4c3c3c2c2ccccc2n3[C@@H]2CC[C@H]4O2)C1=O,> 5000
6,O=C1NC(=O)c2c1c1c3ccccc3n3c1c1c2c2ccccc2n1[C@H]1CC[C@@H]3O1,19
7,O=C1NC(=O)c2c1c1c3ccccc3n3c1c1c2c2ccccc2n1[C@@H]1O[C@H]3C[C@H]1C(=O)O,20
8,O=C1NC(=S)c2c1c1c3ccccc3n3c1c1c2c2ccccc2n1[C@H]1CC[C@@H]3O1,58
9,S=C1NC(=S)c2c1c1c3ccccc3n3c1c1c2c2ccccc2n1[C@H]1CC[C@@H]3O1,42
10,CN1C(=O)c2c(c3c4ccccc4n4c3c3c2c2ccccc2n3[C@@H]2CC[C@H]4O2)C1=O,> 5000
11,C=C1C[C@@H]2O[C@H]1n1c3ccccc3c3c4c(c5c6ccccc6n2c5c31)C(=O)NC4=O,5
12,O=C1NC(=O)c2c1c1c3ccccc3n3c1c1c2c2ccccc2n1[C@@H]1O[C@H]3C[C@H]1CO,2.4
13,NC1=NC(=O)c2c1c1c3ccccc3n3c1c1c2c2ccccc2n1[C@@H]1CC[C@H]3O1,13
14,O=C1NCc2c1c1c3ccccc3n3c1c1c2c2ccccc2n1[C@H]1CC[C@@H]3O1,18
15,O=C1NC(=O)c2c1c1c3ccccc3n3c1c1c2c2ccccc2n1[C@@H]1O[C@H]3C[C@@H]1CO,1.7

# Target: not listed separately
# Experiment: Displacement of ATP from myosin light chain kinase
row,Compound,pKi
1,O=C1NC(=O)c2c1c1c3ccccc3n3c1c1c2c2ccccc2n1[C@@H]1O[C@H]3C[C@@H]1CO,9.15

# Target: cAMP-dependent protein kinase (PKA) (Homo sapiens, UniProt P22694+P17612+P22612)
# Experiment: Inhibition of cAMP-dependent protein kinase (PKA)
# Assay type: protein assay
row,Compound,IC50 [µM]
1,O=C1NC(=O)c2c1c1c3ccccc3n3c1c1c2c2ccccc2n1[C@@H]1O[C@H]3C[C@@H]1CO,0.0185
